In ChEMBL document CHEMBL3885881, “DrugMatrix”:

Species: Rattus norvegicus
Experiment: DrugMatrix - Regimen: Daily Repeat
Type: toxicity, organism-based, Sprague-Dawley
Parameters: regimen Daily Repeat, gender Male, age 6-8 weeks
Settings: in vivo, po, route oral GAVAGE, […]; for ABSOLUTE BASOPHIL / ABSOLUTE EOSINOPHIL / ABSOLUTE LYMPHOCYTE / ABSOLUTE MONOCYTE / ABSOLUTE SEGMENTED NEUTROPHIL / BASOPHIL / EOSINOPHIL / ERYTHROCYTE COUNT / HEMATOCRIT / HEMOGLOBIN / LEUKOCYTE COUNT / LYMPHOCYTE / MEAN CORPUSCULAR HEMOGLOBIN / MEAN CORPUSCULAR HEMOGLOBIN CONCENTRATION / MEAN CORPUSCULAR VOLUME / MONOCYTE / NEUTROPHIL / NUCLEATED RED BLOOD CELLS / PLATELET COUNT: tissue Blood; for ALANINE AMINOTRANSFERASE / ALBUMIN / ALKALINE PHOSPHATASE / ASPARTATE AMINOTRANSFERASE / BLOOD UREA NITROGEN / CARBON DIOXIDE / CHLORIDE / CHOLESTEROL / CREATINE PHOSPHOKINASE / CREATININE / GLUCOSE / LACTATE DEHYDROGENASE / LIPASE / PHOSPHORUS / POTASSIUM / SODIUM / TOTAL BILIRUBIN / TOTAL PROTEIN / URIC ACID: tissue Plasma
[1] = 0 mg/kg, 72 h, dose level Control, time 3 day
[2] = 0 mg/kg, 120 h, dose level Control, time 5 day
[3] = 10 mg/kg, 72 h, dose level Low, time 3 day
[4] = 10 mg/kg, 120 h, dose level Low, time 5 day

## C#C[C@]1(O)CC[C@H]2[C@@H]3CCc4cc(O)ccc4[C@H]3CC[C@@]21C [ETHINYL ESTRADIOL]
[1]
  ABSOLUTE BASOPHIL: 0 CELLS/uL
  ABSOLUTE EOSINOPHIL: 104.17 CELLS/uL
  ABSOLUTE LYMPHOCYTE: 14547 CELLS/uL
  ABSOLUTE MONOCYTE: 292 CELLS/uL
  ABSOLUTE SEGMENTED NEUTROPHIL: 1640.17 CELLS/uL
  BASOPHIL: 0%
  EOSINOPHIL: 0.67%
  ERYTHROCYTE COUNT: 5.35 x10E6/uL
  HEMATOCRIT: 33.67%
  HEMOGLOBIN: 13.38 G/DL
  LEUKOCYTE COUNT: 16.58 x10E3/uL
  LYMPHOCYTE: 87.5%
  MEAN CORPUSCULAR HEMOGLOBIN: 25.05 pg
  MEAN CORPUSCULAR HEMOGLOBIN CONCENTRATION: 39.78 G/DL
  MEAN CORPUSCULAR VOLUME: 62.97 fL
  MONOCYTE: 1.83%
  NEUTROPHIL: 10%
  NUCLEATED RED BLOOD CELLS: 0 /100WBC
  PLATELET COUNT: 1274.5 x10E3/uL
  ALANINE AMINOTRANSFERASE: 76.83 u/L
  ALBUMIN: 3.97 G/DL
  ALKALINE PHOSPHATASE: 347 u/L
  ASPARTATE AMINOTRANSFERASE: 97.17 u/L
  BLOOD UREA NITROGEN: 14.33 mg/dL
  CARBON DIOXIDE: 25.5 mmol/L
  CHLORIDE: 100.33 MEQ/L
  CHOLESTEROL: 68.67 mg/dL
  CREATINE PHOSPHOKINASE: 659.17 u/L
  CREATININE: 0.32 mg/dL
  GLUCOSE: 160.67 mg/dL
  LACTATE DEHYDROGENASE: 271.5 u/L
  LIPASE: 11.67 u/L
  PHOSPHORUS: 10.65 mg/dL
  POTASSIUM: 5.95 MEQ/L
  SODIUM: 139.65 MEQ/L
  TOTAL BILIRUBIN: 0.2 mg/dL
  TOTAL PROTEIN: 5.72 G/DL
  URIC ACID: 1.37 mg/dL
[2]
  ABSOLUTE BASOPHIL: 0 CELLS/uL
  ABSOLUTE EOSINOPHIL: 331.5 CELLS/uL
  ABSOLUTE LYMPHOCYTE: 15021.67 CELLS/uL
  ABSOLUTE MONOCYTE: 376.5 CELLS/uL
  ABSOLUTE SEGMENTED NEUTROPHIL: 3070.33 CELLS/uL
  BASOPHIL: 0%
  EOSINOPHIL: 1.83%
  ERYTHROCYTE COUNT: 5.24 x10E6/uL
  HEMATOCRIT: 33.22%
  HEMOGLOBIN: 13.2 G/DL
  LEUKOCYTE COUNT: 18.8 x10E3/uL
  LYMPHOCYTE: 79.67%
  MEAN CORPUSCULAR HEMOGLOBIN: 25.17 pg
  MEAN CORPUSCULAR HEMOGLOBIN CONCENTRATION: 39.73 G/DL
  MEAN CORPUSCULAR VOLUME: 63.38 fL
  MONOCYTE: 2%
  NEUTROPHIL: 16.5%
  NUCLEATED RED BLOOD CELLS: 0 /100WBC
  PLATELET COUNT: 1142.67 x10E3/uL
  ALANINE AMINOTRANSFERASE: 52.5 u/L
  ALBUMIN: 3.9 G/DL
  ALKALINE PHOSPHATASE: 284.5 u/L
  ASPARTATE AMINOTRANSFERASE: 81.33 u/L
  BLOOD UREA NITROGEN: 16 mg/dL
  CARBON DIOXIDE: 25.33 mmol/L
  CHLORIDE: 99.5 MEQ/L
  CHOLESTEROL: 74.83 mg/dL
  CREATINE PHOSPHOKINASE: 448.33 u/L
  CREATININE: 0.37 mg/dL
  GLUCOSE: 164.17 mg/dL
  LACTATE DEHYDROGENASE: 290.67 u/L
  LIPASE: 6.83 u/L
  PHOSPHORUS: 11.5 mg/dL
  POTASSIUM: 6.28 MEQ/L
  SODIUM: 139.5 MEQ/L
  TOTAL BILIRUBIN: 0.13 mg/dL
  TOTAL PROTEIN: 5.55 G/DL
  URIC ACID: 1.12 mg/dL
[3]
  ABSOLUTE BASOPHIL: 0 CELLS/uL
  ABSOLUTE EOSINOPHIL: 112 CELLS/uL
  ABSOLUTE LYMPHOCYTE: 12658 CELLS/uL
  ABSOLUTE MONOCYTE: 346 CELLS/uL
  ABSOLUTE SEGMENTED NEUTROPHIL: 1350.67 CELLS/uL
  BASOPHIL: 0%
  EOSINOPHIL: 1%
  ERYTHROCYTE COUNT: 5.67 x10E6/uL
  HEMATOCRIT: 36.5%
  HEMOGLOBIN: 13.83 G/DL
  LEUKOCYTE COUNT: 14.47 x10E3/uL
  LYMPHOCYTE: 87.33%
  MEAN CORPUSCULAR HEMOGLOBIN: 24.43 pg
  MEAN CORPUSCULAR HEMOGLOBIN CONCENTRATION: 37.9 G/DL
  MEAN CORPUSCULAR VOLUME: 64.47 fL
  MONOCYTE: 2.33%
  NEUTROPHIL: 9.33%
  NUCLEATED RED BLOOD CELLS: 0 /100WBC
  PLATELET COUNT: 1151 x10E3/uL
  ALANINE AMINOTRANSFERASE: 33.67 u/L
  ALBUMIN: 3.67 G/DL
  ALKALINE PHOSPHATASE: 715.33 u/L
  ASPARTATE AMINOTRANSFERASE: 58.67 u/L
  BLOOD UREA NITROGEN: 12 mg/dL
  CARBON DIOXIDE: 22 mmol/L
  CHLORIDE: 103.33 MEQ/L
  CHOLESTEROL: 20 mg/dL
  CREATINE PHOSPHOKINASE: 384.33 u/L
  CREATININE: 0.1 mg/dL
  GLUCOSE: 148.33 mg/dL
  LACTATE DEHYDROGENASE: 168.67 u/L
  LIPASE: 8 u/L
  PHOSPHORUS: 10.77 mg/dL
  POTASSIUM: 6.1 MEQ/L
  SODIUM: 141.07 MEQ/L
  TOTAL BILIRUBIN: 0.13 mg/dL
  TOTAL PROTEIN: 5.3 G/DL
  URIC ACID: 1.13 mg/dL
[4]
  ABSOLUTE BASOPHIL: 0 CELLS/uL
  ABSOLUTE EOSINOPHIL: 138 CELLS/uL
  ABSOLUTE LYMPHOCYTE: 9196.33 CELLS/uL
  ABSOLUTE MONOCYTE: 408.33 CELLS/uL
  ABSOLUTE SEGMENTED NEUTROPHIL: 1390.67 CELLS/uL
  BASOPHIL: 0%
  EOSINOPHIL: 1%
  ERYTHROCYTE COUNT: 5.71 x10E6/uL
  HEMATOCRIT: 34.9%
  HEMOGLOBIN: 13.2 G/DL
  LEUKOCYTE COUNT: 11.13 x10E3/uL
  LYMPHOCYTE: 83%
  MEAN CORPUSCULAR HEMOGLOBIN: 23.1 pg
  MEAN CORPUSCULAR HEMOGLOBIN CONCENTRATION: 37.83 G/DL
  MEAN CORPUSCULAR VOLUME: 61.17 fL
  MONOCYTE: 3.67%
  NEUTROPHIL: 12.33%
  NUCLEATED RED BLOOD CELLS: 0 /100WBC
  PLATELET COUNT: 1450 x10E3/uL
  ALANINE AMINOTRANSFERASE: 54.67 u/L
  ALBUMIN: 3.87 G/DL
  ALKALINE PHOSPHATASE: 644.33 u/L
  ASPARTATE AMINOTRANSFERASE: 72.67 u/L
  BLOOD UREA NITROGEN: 8.33 mg/dL
  CARBON DIOXIDE: 22.33 mmol/L
  CHLORIDE: 101.33 MEQ/L
  CHOLESTEROL: 17.33 mg/dL
  CREATINE PHOSPHOKINASE: 692.67 u/L
  CREATININE: 0.12 mg/dL
  GLUCOSE: 153.33 mg/dL
  LACTATE DEHYDROGENASE: 158 u/L
  LIPASE: 4.33 u/L
  PHOSPHORUS: 10.27 mg/dL
  POTASSIUM: 5.78 MEQ/L
  SODIUM: 139.87 MEQ/L
  TOTAL BILIRUBIN: 0.23 mg/dL
  TOTAL PROTEIN: 6.07 G/DL
  URIC ACID: 1.63 mg/dL
